Data on 22 compounds can be found in US9062028B2, “Bicyclic nitrogen containing heteroaryl TGR5 receptor modulators” (Bristol-Myers Squibb Company, priority 2011, dated 2015).

Counter-ions that a name gives are not always drawn.

For this assay, the target named is T1, recombinant human TGR5 (Homo sapiens, UniProt Q8TDU6).
T1 construct: expressed in transfected cells
T1 sequence (Q8TDU6 1-330): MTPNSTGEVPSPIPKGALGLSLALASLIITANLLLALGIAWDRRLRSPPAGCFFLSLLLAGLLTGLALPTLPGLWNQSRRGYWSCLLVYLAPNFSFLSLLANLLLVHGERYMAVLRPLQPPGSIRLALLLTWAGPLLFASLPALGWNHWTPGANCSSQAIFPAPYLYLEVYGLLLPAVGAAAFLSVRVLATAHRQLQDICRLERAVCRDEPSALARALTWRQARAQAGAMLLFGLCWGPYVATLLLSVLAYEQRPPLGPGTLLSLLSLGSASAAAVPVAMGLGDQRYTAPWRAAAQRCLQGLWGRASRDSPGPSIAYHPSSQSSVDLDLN
The experiment in a line: cAMP assay (cAMP accumulation, HTRF) in CHOK1 cells stably expressing TGR5. It is filed as cell-based. Conditions: CHOK1 cells stably expressing human TGR5, 30 minutes at RT, 1% DMSO. On the procedure:
The in vitro modulation of recombinant human TGR5 was determined as follows.
A human TGR5 expression construct of human TGR5 was integrated into the genome of a CHOK1 cell line (Invitrogen). Once a stable CHOK1 cell line was generated, the cells were incubated for 5-10 minutes in culture medium consisting of F-12 (Invitrogen#11765-047) supplemented with 10% fetal bovine serum.
On the day of the cAMP accumulation assay, cells stably expressing the […] TGR5 construct were centrifuged at 1000 rpm for 5 minutes. The medium was aspirated and the cells were resuspended in 5 mL of assay buffer (phosphate-buffered saline with Ca^2+ and Mg^2+, Invitrogen#14040). The cells were counted using 1:2 dilution and then adjusted to 0.4-0.5×10^6 cells/mL in assay buffer, if necessary. Isobutylmethylxanthine (IBMX, Sigma#I5879) was added via a 1:5000 dilution to make a 0.1 mM final concentration and then 10 μL of the media were transferred to each well of a 384 well poly-D-lysine coated solid white plate (BD #35-6661) pre-dotted with 100 nL of with the desired concentration of compound added from a concentrated stock dissolved in dimethyl sulfoxide (DMSO) to give a final concentration of 1% DMSO in the assay. The plates were covered and incubated for 30 minutes at RT. cAMP accumulation was measured using the CisBio homogeneous time resolved fluorescence (HTRF) assay kit (#62AM2PEC) following the manufacturer's protocol. Briefly, 5 μl each of the cAMP-HTRF fluorescence detection reagents were added to each well, and the samples were incubated for at least one hour at room temperature. Fluorescence was excited at 320 nm and measured at 665 and 620 nm using the Envision instrument (Perkin Elmer), the fluorescence ratio of 665/620 was calculated and converted to nanomolar concentrations of cAMP in each well by interpolation from a cAMP standard curve. The concentration-response curves and EC50 values were calculated with a four parameter logistic curve fit equation utilizing Excel/XLfit software (Microsoft and IDBS). The EC50 value was calculated as the concentration of agonist which increased the cAMP concentration to a value halfway between the baseline and the maximum.
Background: cAMP levels reflect the balance of adenylyl cyclase and phosphodiesterase activity.
On to `Cc1c(Cl)cccc1OCCCC(=O)N1CCCOc2c(-c3cnn(Cc4c(F)cc(C(=O)NCCS(=O)(=O)O)cc4Cl)c3)cccc21` [Example 703, 2-(3-Chloro-4-((4-(5-(4-(3-chloro-2-methylphenoxy)butanoyl)-2,3,4,5-tetrahydrobenzo[b][1,4]oxazepin-9-yl)-1H-pyrazol-1-yl)methyl)-5-fluorobenzamido)ethanesulfonic acid], for which the EC50 came out at 46 nM.
Turning to `Cc1cccc(OCCOC(=O)N2CCSc3c(-c4cnn(Cc5cccc(C(=O)NCCS(=O)(=O)O)c5)c4)cccc32)c1C` [Example 597, 2-(3-((4-(4-((2-(2,3-Dimethylphenoxy)ethoxy)carbonyl)-3,4-dihydro-2H-benzo[b][1,4]thiazin-8-yl)-1H-pyrazol-1-yl)methyl)benzamido)ethanesulfonic acid], the EC50 was found to be 173 nM.
Then `Cc1c(Cl)cccc1OCCOC(=O)N1CCSc2c(-c3cnn(Cc4cccc(OCC(=O)O)c4)c3)cccc21` [Example 375, 2-(3-((4-(4-((2-(3-Chloro-2-methylphenoxy)ethoxy)carbonyl)-3,4-dihydro-2H-benzo[b][1,4]thiazin-8-yl)-1H-pyrazol-1-yl)methyl)phenoxy)acetic acid], with 188 nM; and `Cc1c(Cl)cccc1OC(C)(C)COC(=O)N1CCCOc2c(-c3cnn(Cc4c(F)cc(C(=O)NCCC(=O)O)cc4Cl)c3)cccc21` [Example 808, 3-(3-Chloro-4-((4-(5-((2-(3-chloro-2-methylphenoxy)-2-methylpropoxy)carbonyl)-2,3,4,5-tetrahydrobenzo[b][1,4]oxazepin-9-yl)-1H-pyrazol-1-yl)methyl)-5-fluorobenzamido)propanoic acid], with 1340 nM.
For the compound `Cc1c(Cl)cccc1OCCCC(=O)N1CCCOc2c(-c3cnn(Cc4ccc(C(=O)NCS(=O)(=O)O)cc4F)c3)cccc21` [Example 719, (4-((4-(5-(4-(3-Chloro-2-methylphenoxy)butanoyl)-2,3,4,5-tetrahydrobenzo[b][1,4]oxazepin-9-yl)-1H-pyrazol-1-yl)methyl)-3-fluorobenzamido)methanesulfonic acid], the EC50 turned out to be 188 nM.
On to `Cc1cccc(OCCCC(=O)N2CCCc3c(-c4csc(COC(=O)NCCC(=O)O)n4)cccc32)c1C` [Example 46, 3-(((4-(1-(4-(2,3-Dimethylphenoxy)butanoyl)-1,2,3,4-tetrahydroquinolin-5-yl)thiazol-2-yl)methoxy)carbonylamino)propanoic acid], for which the EC50 amounted to 1920 nM.
In the case of `Cc1c(Cl)cccc1OCCCC(=O)N1CCSc2c(-c3cnn(Cc4cccc(C(=O)N[C@@H](CC(N)=O)C(=O)O)c4)c3)cccc21` [Example 614, (S)-4-Amino-2-(3-((4-(4-(4-(3-chloro-2-methylphenoxy)butanoyl)-3,4-dihydro-2H-benzo[b][1,4]thiazin-8-yl)-1H-pyrazol-1-yl)methyl)benzamido)-4-oxobutanoic acid] it was 46 nM.
Consider `COC(=O)c1ccc(O)c(Cn2cc(-c3cccc4c3[C@H]3C[C@H]3CN4C(=O)OCCOc3cccc(Cl)c3C)cn2)c1` [Example 447, (1aR,7bS)-2-(3-Chloro-2-methylphenoxy)ethyl 7-(1-(2-hydroxy-5-(methoxycarbonyl)benzyl)-1H-pyrazol-4-yl)-1a,2-dihydro-1H-cyclopropa[c] quinoline-3(7bH)-carboxylate], for which the EC50 is 1590 nM.
On to `Cc1cccc(OCCCC(=O)N2C[C@@H]3C[C@@H]3c3c(-c4cnn(Cc5cccc(C(=O)NCS(=O)(=O)O)c5)c4)cccc32)c1C` (single isomer, unassigned) [Example 238], for which the EC50 was found to be 59 nM.
As to `Cc1cccc(OCCCC(=O)N2CCCc3c(-c4cnn(C(C)(C)C(=O)NCCS(=O)(=O)O)c4)cccc32)c1C` [Example 146Y, 2-(2-(4-(1-(4-(2,3-Dimethylphenoxy)butanoyl)-1,2,3,4-tetrahydroquinolin-5-yl)-1H-pyrazol-1-yl)-2-methylpropanamido)ethanesulfonic acid], the EC50 worked out at 2860 nM.
Then `Cc1c(Cl)cccc1OCCCC(=O)N1C[C@@H]2C[C@@H]2c2c(-c3cnn(Cc4cccc(C(=O)NCS(=O)(=O)O)c4)c3)cccc21` (single isomer, unassigned) [Example 242], with 49 nM.
For `Cc1cccc(OCCCC(=O)N2CCCc3c(-c4cccc(C(=O)NCCS(=O)(=O)O)c4)cccc32)c1C` [Example 148, 2-(3-(1-(4-(2,3-Dimethylphenoxy)butanoyl)-1,2,3,4-tetrahydroquinolin-5-yl)benzamido) ethanesulfonic acid], the EC50 is 3310 nM.
For the compound `Cc1cccc(OCCCC(=O)N2C[C@@H]3C[C@@H]3c3c(-c4cnn(Cc5cccc(C(=O)N(CC(=O)O)CC(=O)O)c5)c4)cccc32)c1C` [Example 882, 2,2′-(3-((4-((1aR,7bS)-3-(4-(2,3-Dimethylphenoxy)butanoyl)-1a,2,3,7b-tetrahydro-1H-cyclopropa[c]quinolin-7-yl)-1H-pyrazol-1-yl)methyl)benzoylazanediyl) diacetic acid], the EC50 worked out at 1340 nM.
In the case of `Cc1cccc(OCCCC(=O)N2CC3CC3c3c(-c4cnn(Cc5c(F)cc(C(=O)NCCS(=O)(=O)O)cc5Cl)c4)cccc32)c1C` (stereo not shown) [Example 69C, 2-(3-Chloro-4-((4-(3-(4-(2,3-dimethylphenoxy)butanoyl)-1a,2,3,7b-tetrahydro-1H-cyclopropa[c]quinolin-7-yl)-1H-pyrazol-1-yl)methyl)-5-fluorobenzamido)ethanesulfonic acid] it was 58 nM; in that of `Cc1c(Cl)cccc1OCCCC(=O)N1CCCOc2c(-c3cnn(Cc4c(F)cc(C(=O)NCS(=O)(=O)O)cc4Cl)c3)cccc21` [Example 702, (3-Chloro-4-((4-(5-(4-(3-chloro-2-methylphenoxy)butanoyl)-2,3,4,5-tetrahydrobenzo[b][1,4]oxazepin-9-yl)-1H-pyrazol-1-yl)methyl)-5-fluorobenzamido)methanesulfonic acid], 46 nM; in that of `CCOC(=O)CNC(=O)c1cccc(Cn2cc(-c3cccc4c3[C@H]3C[C@H]3CN4C(=O)CCCOc3cccc(Cl)c3C)cn2)c1` [Example 924B, Ethyl 2-(3-((4-((1aR,7bS)-3-(4-(3-chloro-2-methylphenoxy)butanoyl)-1a,2,3,7b-tetrahydro-1H-cyclopropa[c]quinolin-7-yl)-1H-pyrazol-1-yl)methyl)benzamido)acetate], 27 nM.
`Cc1cccc(OCCCC(=O)N2CCCc3c(-c4ccn(Cc5cccc(C(=O)NCCS(=O)(=O)O)c5)c4)cccc32)c1C` [Example 168N]: the EC50 came out at 4370 nM.
As to “(R)-5-tert-Butyl 1-methyl 2-(4- chloro-3-((4-((1aR,7bS)-3-((2- (3-chloro-2-methylphenoxy) ethoxy)carbonyl)-1a,2,3,7b- tetrahydro-1H-cyclopropa[c] quinolin-7-yl)-1H-pyrazol-1- yl)methyl)benzamido) pentanedioate [Example 669]”, the EC50 is 1340 nM.
Then `Cc1c(Cl)cccc1OCCCC(=O)N1CCSc2c(-c3cnn(Cc4c(F)cc(C(=O)O)cc4Cl)c3)cccc21` [Example 358, 3-Chloro-4-((4-(4-(4-(3-chloro-2-methylphenoxy)butanoyl)-3,4-dihydro-2H-benzo[b][1,4]thiazin-8-yl)-1H-pyrazol-1-yl)methyl)-5-fluorobenzoic acid], with 43 nM; and `Cc1cccc(NCCCC(=O)N2CCCc3c(-c4cnn(Cc5cccc(C(=O)O)c5)c4)cccc32)c1C` [Example 934, 3-((4-(1-(4-(2,3-Dimethylphenylamino)butanoyl)-1,2,3,4-tetrahydroquinolin-5-yl)-1H-pyrazol-1-yl)methyl)benzoic acid, TFA salt], with 191 nM.
With `Cc1cccc(OCCCC(=O)N2CCCOc3c(-c4cnn(Cc5c(F)cc(C(=O)O)cc5Cl)c4)cccc32)c1C` [Example 392, 3-Chloro-4-((4-(5-(4-(2,3-dimethylphenoxy)butanoyl)-2,3,4,5-tetrahydrobcnzo[b] [1,4]oxazepin-9-yl)-1H-pyrazol-1-yl)methyl)-5-fluorobenzoic acid], the EC50 was 189 nM.
Regarding `Cc1cccc(OCCCC(=O)N2CCCc3c(-c4cnn(Cc5cccc(C(=O)N6CCC(C(=O)O)C6)c5)c4)cccc32)c1C` (stereo not shown) [Example 859, 1-(3-((4-(1-(4-(2,3-Dimethylphenoxy)butanoyl)-1,2,3,4-tetrahydroquinolin-5-yl)-1H-pyrazol-1-yl)methyl)benzoyl)pyrrolidine-3-carboxylic acid], the EC50 stood at 1360 nM.

The term EC50 denotes the concentration giving half of the maximal effect.
